Measured values from US20210401918A1, “COMPOSITION COMPRISING COMBINATION OF RED CLOVER EXTRACT AND HOPS EXTRACT FOR IMPROVEMENT OF MENOPAUSAL DISORDER” (NATURETECH CO. LTD., priority 2018, published 2021).

Tested on: MCF-7 cells
Assay: MCF-7 cells proliferation assay (MTS)
Format: cell-based, human
Experimental: MCF-7 cells (human breast cancer cells) were obtained from the Korea Cell Line Bank and used. RPMI (Gibco, USA) medium containing 10% FBS (Gibco, USA) and 1% penicillin-streptomycin (Gibco, USA) was used as cell culture medium, and cells were cultured in 5% CO2, 37° C. incubator. The medium was replaced every two days, and cells were sub-cultured every 4-5 days. HUVECs (human umbilical vein endothelial cells) were obtained from LONZA and used. M200 (Gibco, USA) containing LSGS kit (Gibco, USA) was used as cell culture medium, and only cells at passage 3-5 were used for the experiment.
Estrogen-free medium, which was prepared by diluting phenol red-free RPMI (Gibco, USA) with 5% dextran-coated charcoal-stripped FBS (TCB, USA) and 1% penicillin-streptomycin, was used for the experiment. After reacting cells in the estrogen-free medium for 3 days, they were seeded in a 96-well plate at a concentration of 1.5×10^4 cells/well and incubated in 5% CO2, 37° C. incubator for 24 hours, and then were treated with the sample so that the final DMSO concentration was 0.1%. E2 was used as the positive control, and ICI 182,780 (Sigma Chem. Co., USA) was used as the negative control. After 72 hours of sample treatment, MTS analysis was performed using CellTiter 96®Aqueous One Solution (Promega, Germany) reagent. Each well was treated with 20 μl of MTS reagent, reacted in 5% CO2, 37° C. incubator for 3 hours, and the absorbance was measured at 490 nm using a microplate reader.
In order to ascertain whether each sample acts on the estrogen receptor to show a cell proliferation effect, the sample was treated together with the estrogen receptor inhibit ICI 182,780, and the results are shown in Table 9.

Row | Structure (SMILES) | Proliferation (%) (Table 8, 1 nM, 72 hours, Control = 100) | Proliferation (%) with ICI 182,780 (Table 9, 1 nM, together with ICI 182,780) [%] | Proliferation (%) without ICI 182,780 (Table 9, 1 nM, without ICI 182,780) [%] | Proliferation (%) with ICI 182,780 (Table 9, Control (sample 0 μg/ml) with ICI 182,780 alone) [%]
1 | C[C@]12CC[C@@H]3c4ccc(O)cc4CC[C@H]3[C@@H]1CC[C@@H]2O [Estradiol, 17β-estradiol] | 135.78 ± 2.83 | 92.27 ± 2.04 | 143.39 ± 10.46 | 
2 | C[C@]12CC[C@@H]3c4ccc(O)cc4C[C@@H](CCCCCCCCC[S+]([O-])CCCC(F)(F)C(F)(F)F)[C@H]3[C@@H]1CC[C@@H]2O (stereo partly shown) [ICI 182,780] |  |  |  | 86.55 ± 1.95
